From ChEMBL document CHEMBL5725783, “Substituted sulfonamide compounds” (2017)

Biological target: Transient receptor potential cation channel subfamily A member 1 (Homo sapiens, UniProt O75762)
Experiment: Fluorescence Assay: IC50s (effective concentration) of compounds on the human TRPA1 channel were determined using a Hamamatsu FDSS fluorescence plate reader. CHO cells expressing human TRPA1 were plated into 384-well plates, incubated overnight at 37° C., and loaded with BD calcium indicator dye for 1 hr at 37° C. followed by 15 minutes at room temperature. The assay buffer was Hank's Balanced Salt Solution (HBSS) containing 20 mM HEPES (pH readjusted to 7.4) along with 0.02% BSA.Following dye load and plate cool down, compounds were added to the cells using the FDSS while monitoring fluorescence to determine whether any of the test compounds have TRPA1 agonist activity. Plates were then incubated with compound for 20 minutes at room temperature prior to adding agonist. Following this incubation, […] cinnamaldehyde was added to all wells of the plate and block of this cinnamaldehyde induced calcium influx was measured.

Sequence of Transient receptor potential cation channel subfamily A member 1 (O75762 whole entry): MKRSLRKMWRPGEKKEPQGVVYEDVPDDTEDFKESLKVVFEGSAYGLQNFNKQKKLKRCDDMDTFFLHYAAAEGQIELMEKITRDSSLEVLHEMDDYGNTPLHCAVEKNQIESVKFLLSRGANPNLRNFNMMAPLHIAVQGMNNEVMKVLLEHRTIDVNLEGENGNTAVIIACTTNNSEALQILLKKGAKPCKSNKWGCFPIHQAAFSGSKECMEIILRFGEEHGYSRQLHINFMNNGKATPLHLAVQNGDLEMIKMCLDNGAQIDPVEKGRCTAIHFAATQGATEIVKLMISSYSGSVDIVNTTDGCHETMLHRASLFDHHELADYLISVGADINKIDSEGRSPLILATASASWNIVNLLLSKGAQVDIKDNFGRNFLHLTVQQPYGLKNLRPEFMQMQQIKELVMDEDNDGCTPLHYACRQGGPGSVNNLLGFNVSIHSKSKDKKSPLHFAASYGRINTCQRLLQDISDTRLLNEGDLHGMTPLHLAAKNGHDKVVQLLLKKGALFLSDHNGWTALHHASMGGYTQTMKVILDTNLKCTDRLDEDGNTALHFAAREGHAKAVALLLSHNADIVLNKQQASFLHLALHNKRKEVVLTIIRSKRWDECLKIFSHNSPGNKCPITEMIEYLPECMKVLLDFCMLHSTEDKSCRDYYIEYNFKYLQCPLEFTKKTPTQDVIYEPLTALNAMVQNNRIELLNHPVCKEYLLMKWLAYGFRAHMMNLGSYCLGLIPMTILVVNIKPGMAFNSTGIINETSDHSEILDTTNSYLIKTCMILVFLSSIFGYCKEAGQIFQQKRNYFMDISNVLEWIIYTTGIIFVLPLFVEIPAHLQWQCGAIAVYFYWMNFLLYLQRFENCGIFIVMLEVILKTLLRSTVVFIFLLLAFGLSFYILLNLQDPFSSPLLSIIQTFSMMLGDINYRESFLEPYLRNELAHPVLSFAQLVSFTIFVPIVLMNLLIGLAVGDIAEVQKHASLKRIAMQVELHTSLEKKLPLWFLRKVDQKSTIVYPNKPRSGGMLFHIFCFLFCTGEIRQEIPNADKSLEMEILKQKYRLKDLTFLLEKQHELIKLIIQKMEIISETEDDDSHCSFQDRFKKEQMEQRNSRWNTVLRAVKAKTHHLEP

IC50: 0.013 µM
SMILES: CC(C)N(CC(=O)NCc1cc(C2=CCC(C(F)(F)F)CC2)ncn1)S(=O)(=O)c1ccc(F)cc1 (stereo unspecified)
